From PMC12514245, “Impaired migration and lung invasion of human melanoma by a novel small molecule targeting the transmembrane domain of death receptor p75^NTR” (EMBO Molecular Medicine, 2025)
Values joined by “and” are separate entries in the source; they are usually repeats but may differ in a detail not shown here. Equal entries are not always repeated.

Tests used:
A875 NT cells [1] = assay: Wound healing cell motility assay, A875 NT; format: cell-based, human; conditions: for Wound area (Fold), Mean / Wound area (Fold), individual replicates: 10uM
Procedure: For wound healing assay, cells were grown until confluency and subjected to a wound across the cell mono-layer. Cells were then incubated with serum-free media either with DMSO or a small molecule (with or without 5 µM Q_VD_poH) and imaged at specific time-points. Cell migration is reflected as fold change in wound area over time.

AS19 E. coli = assay: Bacterial toxicity (OD630) in the AraTM assay; format: cell-based; conditions: compared with Div17E5
p75^NTR TMD = molecular target: T1, p75^NTR TMD (Homo sapiens, UniProt P08138); assay: AraTM assay, wild-type p75NTR TMD (GFP/OD630); format: cell-based; conditions: structure-activity comparison
T1 sequence (P08138 250-275 limits assumed): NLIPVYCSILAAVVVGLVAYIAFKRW

melanoma tumor = test system: melanoma tumor; parameters: method as in Goh et al, 2018; conditions: ref Goh et al, 2018; cited from earlier work
[2] = test system: neurons and melanoma cells; parameters: method as in Goh et al, 2018; conditions: dependent on p75NTR and JNK activity; ref Goh et al, 2018; cited from earlier work
[3] = molecular target: T2, fascin/p75^NTR interaction (Homo sapiens, UniProt P08138); assay: Co-immunoprecipitation of fascin with p75NTR in A875 cells; format: cell-based; conditions: NGF, experiments 1-3
T2 construct: endogenous in cells; host or cells: A875-NT (and A875 sh-p75NTR knock-down control)
T2 sequence (P08138 29-427): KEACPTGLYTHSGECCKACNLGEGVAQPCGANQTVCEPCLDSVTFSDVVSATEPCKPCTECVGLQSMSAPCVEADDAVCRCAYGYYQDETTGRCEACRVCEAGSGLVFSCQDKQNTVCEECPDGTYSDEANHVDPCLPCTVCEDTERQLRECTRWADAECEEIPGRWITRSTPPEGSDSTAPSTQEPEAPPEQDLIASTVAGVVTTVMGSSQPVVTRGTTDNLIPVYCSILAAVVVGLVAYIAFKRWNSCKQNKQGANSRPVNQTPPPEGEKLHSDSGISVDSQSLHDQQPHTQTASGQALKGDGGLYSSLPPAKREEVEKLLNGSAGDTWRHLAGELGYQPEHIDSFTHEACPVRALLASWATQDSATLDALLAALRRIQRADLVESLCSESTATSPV
Procedure: For co-immunoprecipitation analysis of p75^NTR/fascin interactions, A875 sh-p75^NTR and A875-NT cells were plated in a 10 cm tissue culture dish at a confluency of 3 × 10^6 cells/dish in normal growth media. Twenty-four hours after plating, the cells were treated with 1 μM 4A22 and NGF (100 ng/ml) for 12 h prior to harvest and lysis in lysis buffer (50 mM Tris/HCl pH 7.5, 1 mM EDTA, 270 mM Sucrose, 1% (v/v) Triton X-100, 0.1% (v/v) 2-mercaptoethanol and 60 mM n-Octyl-β-D glucopyranoside) containing protease inhibitor cocktail. The cellular extracts were then centrifuged at 4 °C top speed on a benchtop centrifuge for 1 min and the supernatant was collected. For immunoprecipitation, A875 cell extracts were incubated for 16 h at 4 °C on a rotating wheel with 0.8 μg of anti-p75^NTR antibody (ANT-007, Alomone) and then incubated with Sepharose protein-G beads (GE Healthcare). The beads were collected by brief centrifugation (2 min, 2500 rpm, 4 °C), washed three times with 1 ml of Wash Buffer (with composition same as the lysis buffer). After the last wash, pelleted beads were aspirated off the wash buffer followed by addition of Laemmli sample buffer and analysis by SDS–PAGE followed by Western Blot using anti-fascin antibody (MA5-11483, Invitrogen).

A875 shp75 cells [4] = assay: Boyden chamber chemotaxis assay, A875 shp75; format: cell-based, human; conditions: NGF as chemoattractant
A875 shp75 cells [5] = assay: Filopodia per cell (phalloidin staining), A875 shp75; format: cell-based, human; conditions: for filopodia per cell (well mean): A875 shp75 cells, wells 1-4
Procedure: (§1) For assessment of actin filaments, A875 cells were plated on glass coverslips in 24-well plate at a confluency of 3 × 10^4 cells/well. One day after plating, the cells were treated with 1 μM or 5 μM Np75-4A22 and NGF (100 ng/ml) or PBS for 24 h. Cells were fixed in 4% paraformaldehyde, permeabilized in 0.1% Triton-X-100, stained with Phalloidin-iFluor 488 (Abcam) at 1:2000 dilution and DAPI for 1 h. Coverslips were mounted and visualized in a laser confocal microscope.

[6] = test system: fascin in Triton-insoluble fraction of A875 NT cells; assay: Detergent-insolubility assay of fascin, A875 NT; format: cell-based, human; conditions: NGF; insoluble/total fascin, n1-n3
Procedure: A single cell suspension was obtained by trypsinization followed by centrifugation and detergent extraction with lysis buffer (with 0.5% Triton X-100). Then, immediately centrifuged at 8700 g for 3 min. The resulting pellets (containing the Triton X-100-resistant proteins) were suspended in lysis buffer without Triton X-100. In parallel, cells were centrifuged and then directly suspended in lysis buffer. The Triton X-100- resistant proteins and total cell lysates were analyzed by SDS–PAGE and Western blotting with anti-fascin antibody.

WM115 cells = assay: Boyden chamber chemotaxis assay, WM115; format: cell-based, human; conditions: 100 ng/ml NGF
Procedure: For Boyden chamber assay, Corning® BioCoat™ Matrigel® Invasion Chambers 8.0 µm PET Membrane were used (cat. no. 354480). A875 NT or WM115 cells were serum-starved for 16 h and then seeded at 60,000 cells per well in serum-free media under different conditions, including DMSO (vehicle) or small molecules Div17E5 or Np75-4A22 at different concentrations to the top chamber of the Matrigel-coated trans-well chamber. The pan-caspase inhibitor Q_VD_poH (at 5 µM) was also introduced in the top chamber in some experiments. Two different chemoattractants, NGF (at 50 ng/ml or 100 ng/ml as indicated) or 10% FBS were added to the bottom chamber. Assays were carried out for 8 h after which filters were fixed in 4% PFA and stained with DAPI. Cells that had remained on the top of the filter were gently scrapped away with a cotton tip. The filter lower side was imaged on an inverted fluorescence microscope and counted using ImageJ software (NIH).

A875 NT cells [7] = assay: Filopodia per cell (phalloidin staining), A875 NT; format: cell-based, human
Procedure: as §1

COc1ccc(-c2cncc(Nc3ccc([N+](=O)[O-])cc3)n2)cc1 [MS_18]
wound healing assay, comparison of Div17E5, MS_18 and MS_63 (A875 NT cells [1]; 10 µM): lower potency | Wound area (Fold), Mean (A875 NT cells [1]; 0 hours): 1 Fold | Wound area (Fold), individual replicates (A875 NT cells [1]; 0 hours): 1.000 Fold | Wound area (Fold), Mean (A875 NT cells [1]; 3 hours): 0.941 Fold | Wound area (Fold), individual replicates (A875 NT cells [1]; 3 hours): 0.922 Fold and 0.959 Fold | Wound area (Fold), Mean (A875 NT cells [1]; 6 hours): 0.91 Fold | Wound area (Fold), individual replicates (A875 NT cells [1]; 6 hours): 0.89 Fold and 0.929 Fold | Wound area (Fold), Mean (A875 NT cells [1]; 9 hours): 0.867 Fold | Wound area (Fold), individual replicates (A875 NT cells [1]; 9 hours): 0.834 Fold and 0.901 Fold | Wound area (Fold), Mean (A875 NT cells [1]; 12 hours): 0.851 Fold | Wound area (Fold), individual replicates (A875 NT cells [1]; 12 hours): 0.803 Fold and 0.899 Fold | Wound area (Fold), Mean (A875 NT cells [1]; 15 hours): 0.791 Fold | Wound area (Fold), individual replicates (A875 NT cells [1]; 15 hours): 0.728 Fold and 0.855 Fold | Wound area (Fold), Mean (A875 NT cells [1]; 18 hours): 0.817 Fold | Wound area (Fold), individual replicates (A875 NT cells [1]; 18 hours): 0.79 Fold and 0.845 Fold | Wound area (Fold), Mean (A875 NT cells [1]; 21 hours): 0.775 Fold | Wound area (Fold), individual replicates (A875 NT cells [1]; 21 hours): 0.722 Fold and 0.827 Fold | Wound area (Fold), Mean (A875 NT cells [1]; 24 hours): 0.737 Fold | Wound area (Fold), individual replicates (A875 NT cells [1]; 24 hours): 0.692 Fold and 0.783 Fold | bacterial toxicity, as assessed by OD630 (AS19 E. coli): somewhat lower bacterial toxicity | activity in the AraTM assay (p75^NTR TMD): MS_18 more potent than Np75-3A01, -3A02

O=C(/C=C/c1cccnc1)c1ccccc1O [NSC49652]
melanoma tumor growth (melanoma tumor): inhibited melanoma tumor growth | apoptotic cell death [2]: triggered apoptotic cell death

NGF: nerve growth factor, neurotrophin ligand of p75NTR, used as chemoattractant
FASCIN/P75 [3]: 0.1943 and 0.2161 and 0.2851 | FASCIN/P75 Fold change ([3]; relative to UT): 1.97 and 2.116 and 1.36 | Fold change (invading cells), n1-n4 (A875 shp75 cells [4]): 0.89 Fold and 1.06 Fold and 1.42 Fold and 1.05 Fold | Fold change (invading cells), Mean (A875 shp75 cells [4]; N=4): 1.110 Fold | filopodia per cell (mean of 3 experiments) (A875 shp75 cells [5]; A875 shp75, 100ng/ml NGF): 33.6544 | filopodia per cell (mean of one experiment) (A875 shp75 cells [5]; A875 shp75, 100ng/ml NGF, EXP1-EXP3): 32.2411 and 36.1597 and 32.5625 | filopodia per cell (well mean) (A875 shp75 cells [5]; EXP1, 100 ng/ml NGF): 25.2143 and 35.5 and 37.1667 and 31.0833 | filopodia per cell (well mean) (A875 shp75 cells [5]; EXP2, 100 ng/ml NGF): 37 and 30.3889 and 32.6667 and 44.5833 | Fold change (compared to untreated cells) [6]: 3.421 and 2.292 and 2.425 | values normalized to vehicle, mean (Figure 6E) (WM115 cells; mean of EXP1-3): 1.5693 | values normalized to vehicle (Figure 6E) (WM115 cells; single experiments EXP1-3): 1.456 and 1.588 and 1.664 | Filopodia per cell, mean of experiment (A875 NT cells [7]; 100 ng/ml NGF alone, A875 NT, EXP1-EXP3): 50.0863 and 44.7441 and 46.2718 | Filopodia per cell, mean of three experiments (A875 NT cells [7]; 100 ng/ml NGF alone, A875 NT, mean of EXP1-3): 47.0341 | Filopodia per cell, mean of well (A875 NT cells [7]; 100 ng/ml NGF alone, A875 NT, well mean): 36.2857 and 52.7857 and 51.5714 and 47.2222 and 38.6667 and 55.1429 and 44.0556 | Filopodia per cell, mean of the well (A875 NT cells [7]; 100 ng/ml NGF, EXP1 NT, well mean): 59.8571 and 51.381 and 46.8571 and 42.25
